The values below come from article PMC7672115 (Scientific Reports, 2020).

The nature of data set [1]: in vitro. The data set is classed as cell-based. On the procedure: (§1) Cells were seeded on 96-well plates at 5 × 10^4 cells/well and treated with various concentrations of the extracts or purified compounds for 48 h. Cell viability was evaluated by an MTT colorimetric assay. In brief, the medium was replaced with MTT [3-(4,5-dimethylthiazol-2-yl)-2,5-diphenyltetrazolium bromide] (Sigma-Aldrich, USA) and incubated for 4 h at 37 °C in a humidified incubator with 5% CO2. The formazan crystal was dissolved with DMSO (Merck, Germany) and measured at a wavelength of 570 nm by EnVision Multilabel Reader (PerkinElmer, USA). Data was normalized versus the solvent control, and then CC50 values were calculated using GraphPad Prism 7.

The test system of data set [2] is SARS-CoV-2. Put plainly: microbe, parasite or virus in culture. The following applies: for %Inhibition at 10 µM: purified compounds. The data set is classed as cell-based.
Data set [3] relates to SARS-CoV-2. Put plainly: microbe, parasite or virus in culture. Conditions: Severe acute respiratory syndrome coronavirus 2, Vero C1008, 48 h, read-out: IC50 (virus inhibition, high-content imaging/IFA).
For data set [4], the system named is SARS-CoV-2. The experiment in a line: microbe, parasite or virus in culture. The class given is cell-based. The following applies: for pIC50: read-out: IC50 (plaque reduction assay); for concentration with absolute inhibition of the infectious virion production: post-treatment approach, Vero E6, plaque assay. Background: Plaques are areas of infected cells; plaque reduction assays count them against a control.

Data set [5] deals with SARS-CoV-2. The experiment in a line: microbe, parasite or virus in culture. The class given is cell-based. The following applies: Vero E6.
Data set [6] deals with SARS-CoV-2. Conditions: pre-entry, Vero E6.
The subject of data set [7] is SARS-CoV-2. The experiment in a line: Plaque reduction assay of viral output, pre-entry treatment, Vero E6 cells. The data set is classed as cell-based.
The subject of data set [8] is SARS-CoV-2. The experiment in a line: microbe, parasite or virus in culture. Conditions: Severe acute respiratory syndrome coronavirus 2, Vero C1008, read-out: IC50 (virus inhibition, high-content imaging).
A short description of data set [9]: Cell viability assay (MTT) in Calu-3 cells. Conditions: human.
Data set [10] relates to SARS-CoV-2. Put plainly: microbe, parasite or virus in culture. The data set is classed as cell-based.
Data set [11] deals with HepG2, imHC, HK-2, SH-SY5Y, Caco-2. The experiment in a line: Cell viability assay (MTT) in various human cell types. The class given is cell-based. Conditions: 0 - 100 µM, 48 h.
In data set [12] the test system is SARS-CoV-2. Conditions: for SI (CC50/IC50): post-infection, Vero E6.
Data set [13] has as its system SARS-CoV-2. Put plainly: microbe, parasite or virus in culture. The class given is cell-based. The source holds these as a separate data set.
The subject of the next data set is Vero E6 cells. Put plainly: in vitro. The class given is cell-based. Conditions: Vero E6, post-infection treatment setting, 48 h. On the procedure: as §1
The nature of data set [14]: in vitro. Conditions: human.
[15] abbreviates: Severe acute respiratory syndrome coronavirus 2, Vero C1008, purified compounds, single dose 10 µM, Vero E6, SARS-CoV-2 25TCID50, read-out: %Inhibition at 10 µM.
Where [16] appears, read: Severe acute respiratory syndrome coronavirus 2, Vero C1008, post-infection treatment, Vero E6, 48 h.
[17] abbreviates: Vero E6, post-infection treatment setting, 48 h, read-out: CC50.
The mark [18] stands for this setting: Vero E6, pre-entry treatment setting, read-out: CC50.
[19] abbreviates: single dose 10 µM, Vero E6, SARS-CoV-2 25TCID50.
The mark [20] stands for this setting: Severe acute respiratory syndrome coronavirus 2, Vero C1008, 48 h.

pIC50: −log10 of the molar value. Where two headings read alike, the source gives them in different places.

`C=C1CC[C@@H]2[C@](C)(CO)[C@H](O)CC[C@@]2(C)[C@@H]1C/C=C1/C(=O)OC[C@H]1O` [Andrographolide]: the CC50 at 48 h in the data set “in vitro [1]” (African green monkey, CC50) was 27.8 µM. In the data set on SARS-CoV-2 [2] (setting [15]), the inhibition at 10 µM amounted to 99.9%. For the same compound, the “%Inhibition at 10 µM” value with SARS-CoV-2 [2] (single dose 10 µM, Vero E6, SARS-CoV-2 25TCID50, listed as ECDD-NAD) amounted to 99.97%. Besides, the pIC50 in the data set on SARS-CoV-2 [3] is 5.18; in the data set with SARS-CoV-2 [4] (setting [16]), 6.55. Moreover, the “concentration with absolute inhibition of the infectious virion production” value in the data set on SARS-CoV-2 [4] amounted to 12.5 µM.
On to `COc1cc(O)c(C(=O)[C@@H]2[C@H](CC=C(C)C)C(C)=CC[C@H]2c2ccccc2)c(O)c1` [Panduratin A], for which the figures for the CC50 at 48 h (in the data set “in vitro [1]” (setting [17]); in “in vitro [1]” (setting [18]); in data set [9]) were 14.7 µM, 43.5 µM and 43.9 µM, respectively. The “antiviral effect (in words)” value with SARS-CoV-2 [5] (cells treated with extract/compound before viral adsorption) was “did not exerted a dramatic antiviral effect”. Moreover, the inhibition at 10 µM with SARS-CoV-2 [2] (setting [15]) came to 99.9%. For the same compound, the “%Inhibition at 10 µM” value in the data set with SARS-CoV-2 [2] (single dose 10 µM, Vero E6, SARS-CoV-2 25TCID50, listed as ECDD-NPA) is given as 99.97%. Besides, the results for the “SI (CC50/IC50)” value with SARS-CoV-2 [6] and with SARS-CoV-2 [12] were 8.20 and 18.16, respectively. The pIC50 with SARS-CoV-2 [7] (Severe acute respiratory syndrome coronavirus 2, Vero C1008, Vero E6) is 5.12; with SARS-CoV-2 [8] it was 5.28; with SARS-CoV-2 [10] (Severe acute respiratory syndrome coronavirus 2, post-treatment, Calu-3, read-out: IC50 (plaque assay)) it was 6.28; with SARS-CoV-2 [3] it was 6.09; with SARS-CoV-2 [13] (Severe acute respiratory syndrome coronavirus 2, post-treatment, Calu-3, read-out: IC50 (virus inhibition, high-content imaging/IFA)), 5.69; in the data set with SARS-CoV-2 [4] (setting [16]), 7.11. The “dose with absolute suppression of the infectious virion production” value in the data set with SARS-CoV-2 [7] (Vero E6, plaque assay) worked out at 50 µM. In addition, the “cytotoxicity at the therapeutic window (in words)” value in [11] is recorded as “no or minimal cytotoxicity”. Also, the “concentration with absolute inhibition of the infectious virion production” value in the data set with SARS-CoV-2 [4] is reported as 5 µM.
As for Ivermectin [reference compound], the CC50 in the data set on Vero E6 cells was found to be 31.7 µM. For the same compound, the pIC50 in the data set on SARS-CoV-2 [12] (read-out: IC50 (virus inhibition, high-content imaging/IFA), post-infection treatment, Vero E6, 48 h) is 4.90.
`CCCCC/C=C/C(=O)CCc1ccc(O)c(OC)c1` [ECDD-DPM-N97, 6-Shogaol]: in the data set with SARS-CoV-2 [2] (setting [19]), the “%Inhibition at 10 µM” value is recorded as 12.17%.
`CCN(CCO)CCCC(C)Nc1ccnc2cc(Cl)ccc12` (stereo not shown) [Hydroxychloroquine, reference compound]: the CC50 at 48 h in “in vitro [1]” (African green monkey, Vero E6, post-infection treatment setting, 48 h, read-out: CC50) was above 100 µM; in “in vitro [1]” (African green monkey, Vero E6, pre-infection phase setting, read-out: CC50), above 100 µM; in “in vitro [1]” (setting [18]), above 100 µM. Moreover, the pIC50 in the data set with SARS-CoV-2 [5] (Severe acute respiratory syndrome coronavirus 2, Vero C1008, pre-infection phase, read-out: IC50 (virus inhibition, high-content imaging)) is 4.69; in the data set with SARS-CoV-2 [8], 5.09; in the data set with SARS-CoV-2 [3], 5.29; in the data set on SARS-CoV-2 [4] (setting [16]) it was 6.55. Further, the “SI (CC50/IC50)” value in the data set with SARS-CoV-2 [6] is reported as above 12.39; with SARS-CoV-2 [12], above 19.68.
Take `COc1c(O)cc2oc3cc(O)c(CC=C(C)C)c(O)c3c(=O)c2c1CC=C(C)C` [ECDD-NAM, alpha-mangostin]: the “%Inhibition at 10 µM” value in the data set on SARS-CoV-2 [2] (setting [19]) was found to be 9.08%.
As for `CCC(CC)COC(=O)[C@H](C)N[P@](=O)(OC[C@H]1O[C@@](C#N)(c2ccc3c(N)ncnn23)[C@H](O)[C@@H]1O)Oc1ccccc1` [Remdesivir, reference compound], the pIC50 with SARS-CoV-2 [10] (Severe acute respiratory syndrome coronavirus 2, Calu-3, read-out: IC50 (plaque assay)) is 7.07; with SARS-CoV-2 [3], 5.57; with SARS-CoV-2 [13] (Severe acute respiratory syndrome coronavirus 2, Calu-3, read-out: IC50 (virus inhibition, high-content imaging/IFA)), 7.37; with SARS-CoV-2 [4] (setting [20]) it was 5.58. The same compound registered a CC50 in “in vitro [14]” of 16 µM.
As for `CCCCCCCCC[C@H](O)CC(=O)CCc1ccc(O)c(OC)c1` [ECDD-DPM-N96, 10-Gingerol], the “%Inhibition at 10 µM” value with SARS-CoV-2 [2] (setting [19]) came out at 23.51%.
Still for that read-out and setting: the figure for `CCCCCCCCC/C=C/C(=O)CCc1ccc(O)c(OC)c1` [MUC1775, 10-Shogaol] is 5.7%; for `CCCCCCC[C@H](O)CC(=O)CCc1ccc(O)c(OC)c1` [ECDD-DPM-N95, 8-Gingerol] it is 17.59%.
Regarding `CCCCC[C@H](O)CC(=O)CCc1ccc(O)c(OC)c1` [6-Gingerol], in “in vitro [1]” (setting [17]), the CC50 at 48 h was above 100 µM. For the same compound, the inhibition at 10 µM with SARS-CoV-2 [2] (Severe acute respiratory syndrome coronavirus 2, Vero C1008, read-out: %Inhibition at 10 µM) came to 7.78%. In the data set on SARS-CoV-2 [2] (extract at 10 µg/mL, compound at 10 µM), the “inhibitory activity against SARS-CoV-2 infection (in words)” value is given as “mild effect”. The pIC50 with SARS-CoV-2 [3] is below 4.00; in the data set with SARS-CoV-2 [4] (setting [20]) it was 5.86.

The term inhibition denotes how much of the control response was suppressed. For orientation: %Inhibition means the relative decrease from the control value, in per cent. Higher therefore signals a strong effect.
